Experimental data reported in US8361968B2 (Takeda Pharmaceutical Company Limited, priority 2002, dated 2013).
Like-named read-outs stand apart in the source and are kept apart here. Square brackets hold non-standard residues; d marks the D form. Peptide text beside a SMILES is read from it. Arg(Me) = CNC(=N)NCCC[C@H](N)C(=O)O; 4Pal = N[C@@H](Cc1ccncc1)C(=O)O; azaGly = NNC(=O)O

Key:
[1] = tested on: hOT7T175-expressed CHO cells; type: cell-based
Protocol: Assay for Cell Growth Inhibition Activity in hOT7T175-Expressed Cho Cells hOT7T175-Expressed CHO cells (hereinafter hOT7T175) were cultured in DMEM supplemented with 10% dialyzed FBS (hereinafter 10% dFBS/DMEM), which was used for the following assay. The hOT7T175 was suspended in 10% dFBS/DMEM at 10,000 cells/ml. The cells were plated on a 96 well plate at 100 μL each/well (1,000 cells/well), followed by culturing overnight at 37° C. in a 5% CO2 incubator. On the following day, the medium was removed and 90 μL of 10% dFBS/DMEM supplemented with 0.5% BSA (hereinafter, 0.5% BSA/10% dFBS/DMEM) was added. […] After 10 μL of Cell Counting Kit-8 solution (Dojin Chemical Laboratory) was added to each well, incubation was performed at 37° C. in a 5% CO2 incubator for 4 hours and absorbance was measured at 450 nm.

[2] = Stability of compound in blood (mouse serum, half life); conditions: female, Balb/c
Protocol: (§1) Blood was drawn from Balb/c mice (female) of 8 weeks old, settled at 37° C. for 30 minutes and centrifuged at 13000 rpm for 10 minutes to give the serum as the supernatant. The serum thus obtained was frozen-stored at −80° C.
(§2) The stability test was performed by addition of 5 nmol of Compound (5 μL of aqueous solution) to 45 μL of serum and then settlement of the mixture at 37° C. The settlement was made at 3 points of time, including 2, 10 and 30 minutes. The sample after the settlement was boiled for 3 minutes and cooled on an ice bath. After 200 μL of acetonitrile/water (3/1) was added to the sample, the mixture was ultrasonicated for 5 minutes and then centrifuged at 5000 rpm for 1 minute. After 150 μL of the supernatant was diluted with 250 μL of distilled water, insoluble matters were removed by filtration through a filter having a pore size of 0.45 μm and 200 μL of the filtrate was applied on HPLC (220 nm) to determine the peak area of Compound. A ratio of the peak area to the area when Compound was treated for 0 minute under the same conditions was calculated as a mean value in 4 respective runs to determine the residual ratio. Next, by taking the calculated residual ratio on the ordinate and the time on the abscissa, a graph was prepared and approximated by an exponential function.
(§3) The preparative HPLC used was the LC-VP series manufactured by Shimadzu Corporation and Wakosil-II 5C18 HG (4.6 mm×100 mm) manufactured by Wako Pure Chemical Industries, Ltd. was used as the column. Eluant A (0.1% TFA-containing water) and eluant B (0.1% TFA-containing acetonitrile) were used as eluants. Analysis was performed by linear density gradient elution (25 minutes) at a flow rate of 1.0 ml/min. using eluants A/B: 100/0-0/50.

hOT7T175 [3] = biological target: T1, hOT7T175 (Homo sapiens, UniProt Q969F8, L364H); assay: Intracellular Ca ion level-increasing activity using FLIPR in hOT7T175/CHO; type: cell-based; set-up: expressed in transfected cells; host or cells: CHO/dhfr- cells, obtained from ATCC; conditions: relative, Metastin (1-54) = 1
T1 sequence (Q969F8 whole entry L364H): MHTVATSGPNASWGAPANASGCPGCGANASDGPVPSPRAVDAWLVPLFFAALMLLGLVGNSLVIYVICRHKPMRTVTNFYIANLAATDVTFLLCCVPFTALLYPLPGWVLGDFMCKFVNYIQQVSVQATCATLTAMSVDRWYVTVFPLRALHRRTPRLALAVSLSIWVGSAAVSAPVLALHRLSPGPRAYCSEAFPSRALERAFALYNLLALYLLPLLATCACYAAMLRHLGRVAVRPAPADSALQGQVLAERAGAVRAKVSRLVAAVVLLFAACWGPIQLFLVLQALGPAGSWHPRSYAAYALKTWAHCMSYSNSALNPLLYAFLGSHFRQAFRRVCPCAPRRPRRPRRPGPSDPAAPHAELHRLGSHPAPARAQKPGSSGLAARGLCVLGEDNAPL

in vitro = conditions: female, Balb/c, mouse, serum
Protocol: as §1, §2, §3

hOT7T175 [4] = biological target: T1, hOT7T175; assay: hOT7T175 receptor binding activity: binding inhibition of Cy-5-labeled metastin (40-54) on hOT7T175-expressed CHO cells; set-up: expressed in transfected cells; host or cells: CHO cells
[5] = hOT7T175-expressed CHO cells, 3 days culture, Cell Counting Kit-8, read-out: IC50 (M), cell growth inhibition activity

Row | SMILES | IC50 [1, 5] [M] | half-life at 100 µM [2] [min] | Specific Activity (intracellular Ca ion level-increasing activity) (hOT7T175 [3]) | IC50 [1] [M] | half-life at 100 µM (in vitro) [min] | IC50 (hOT7T175 [4]) [nM]
1 | CC(C)C[C@H](NC(=O)CNC(=O)[C@H](Cc1ccccc1)NC(=O)[C@H](CO)NC(=O)[C@H](CC(N)=O)NC(=O)[C@H](Cc1c[nH]c2ccccc12)NC(=O)[C@H](CC(N)=O)NC(=O)[C@@H](N)Cc1ccc(O)cc1)C(=O)N[C@@H](CCCNC(=N)N)C(=O)N[C@@H](Cc1ccccc1)C(N)=O [45-54] | 8.51e-06 | – | – | – | – | –
2 | CC(C)C[C@H](NC(=O)CNC(=O)[C@H](Cc1ccccc1)NC(=O)[C@H](CO)NC(=O)[C@H](CC(N)=O)NC(=O)[C@H](Cc1c[nH]c2ccccc12)NC(=O)[C@H](CC(N)=O)NC(=O)[C@@H](N)Cc1ccc(O)cc1)C(=O)N[C@@H](CCCNC(=N)N)C(=O)N[C@@H](Cc1ccccc1)C(N)=O [Compound No. 3, reference compound] | – | 0.6 | 10 | – | – | –
3 | CC(C)C[C@H](NC(=O)CNC(=O)[C@H](Cc1ccccc1)NC(=O)[C@H](CO)NC(=O)[C@H](CC(N)=O)NC(=O)[C@H](Cc1c[nH]c2ccccc12)NC(=O)[C@H](CC(N)=O)NC(=O)[C@H](N)Cc1ccc(O)cc1)C(=O)N[C@@H](CCCNC(=N)N)C(=O)N[C@@H](Cc1ccccc1)C(N)=O [Compound No. 42] | – | 0.7 | 30 | – | – | –
4 | CNC(=N)NCCC[C@H](NC(=O)[C@H](CC(C)C)NC(=O)CNC(=O)[C@H](Cc1ccccc1)NC(=O)[C@H](CO)NC(=O)[C@H](CC(N)=O)NC(=O)[C@H](Cc1c[nH]c2ccccc12)NC(=O)[C@H](CC(N)=O)NC(=O)[C@H](N)Cc1ccc(O)cc1)C(=O)N[C@@H](Cc1ccccc1)C(N)=O [Compound No. 141] | – | – | 10 | 8.7e-08 | 8.7 | –
5 | CNC(=N)NCCC[C@H](NC(=O)[C@H](CC(C)C)NC(=O)NNC(=O)[C@H](Cc1ccccc1)NC(=O)[C@H](CO)NC(=O)[C@H](CC(N)=O)NC(=O)[C@H](Cc1c[nH]c2ccccc12)NC(=O)[C@H](CC(N)=O)NC(=O)[C@H](N)Cc1ccc(O)cc1)C(=O)N[C@@H](Cc1ccccc1)C(N)=O [Compound No. 232, D-Tyr-Asn-Trp-Asn-Ser-Phe-AzaGly-Leu-Arg(Me)-Phe-NH2] | – | – | 3 | 9.67e-09 | 28.2 | 49
6 | CNC(=N)NCCC[C@H](NC(=O)[C@H](CC(C)C)NC(=O)NNC(=O)[C@H](Cc1ccccc1)NC(=O)[C@H](CO)NC(=O)[C@H](CC(N)=O)NC(=O)[C@H](Cc1ccncc1)NC(=O)[C@H](CC(N)=O)NC(=O)[C@H](N)Cc1ccc(O)cc1)C(=O)N[C@@H](Cc1ccccc1)C(N)=O [Compound No. 286, D-Tyr-Asn-Pya(4)-Asn-Ser-Phe-AzaGly-Leu-Arg(Me)-Phe-NH2] (H-[dY]N[4Pal]NSF[azaGly]L[Arg(Me)]F-NH2) | 1.83e-08 | – | 2 | – | – | –
7 | CNC(=N)NCCC[C@H](NC(=O)[C@H](CC(C)C)NC(=O)NNC(=O)[C@H](Cc1ccccc1)NC(=O)[C@H](CO)NC(=O)[C@H](CC(N)=O)NC(=O)[C@H](Cc1ccncc1)NC(=O)[C@@H](CC(N)=O)NC(=O)[C@H](N)Cc1ccc(O)cc1)C(=O)N[C@@H](Cc1ccccc1)C(N)=O [Compound No. 303, D-Tyr-D-Asn-Pya(4)-Asn-Ser-Phe-AzaGly-Leu-Arg(Me)-Phe-NH2] (H-[dY][dN][4Pal]NSF[azaGly]L[Arg(Me)]F-NH2) | 4.12e-08 | – | 5 | – | – | –
8 | CNC(=N)NCCC[C@H](NC(=O)[C@H](CC(C)C)NC(=O)CC(=O)N[C@H](Cc1ccccc1)NC(=O)[C@H](CO)NC(=O)[C@H](CC(N)=O)NC(=O)[C@H](Cc1c[nH]c2ccccc12)NC(=O)[C@H](CC(N)=O)NC(=O)[C@H](N)Cc1ccc(O)cc1)C(=O)N[C@@H](Cc1ccccc1)C(N)=O [Compound No. 319, D-Tyr-Asn-Trp-Asn-Ser-PheΨ(NHCO)Gly-Leu-Arg(Me)-Phe-NH2] | – | 33 | 3 | – | – | –
